# Reference: patent US6653339B2, “Method of treating irritable bowel syndrome” (Pfizer Inc., priority 2001, dated 2003)
# Tests used:
# Format in all cases: in vivo, human
# irritable bowel syndrome [1] = experiment: Clinical Study 2, controlled (slow) release darifenacin once daily vs placebo in irritable bowel syndrome; conditions: 12 weeks; for Constipation % of patients reporting AEs / Dry Mouth % of patients reporting AEs / Global Rating % Reduction from baseline / Loose Stool % Reduction from baseline / Pain Score % Reduction from baseline / Total AE % of patients reporting AEs / Urgency % Reduction from baseline / Vision % of patients reporting AEs: uncorrected
# Description: (§1) The invention may be illustrated by the following clinical studies wherein the treatment of irritable bowel syndrome using darifenacin administered as a once-daily controlled (slow) release formulation in accordance with the prior art is compared with treatment using darifenacin administered as a thrice daily immediate release formulation in accordance with the present invention. Specifically, Clinical Studies 1 and 2 used controlled (slow) release formulations of darifenacin administered once daily (od) and Clinical Study 3 used an immediate release formulation of darifenacin administered three times daily (tid).
# (§2) During each clinical study, four efficacy measures of irritable bowel syndrome severity were measured, viz. ‘Pain Score’ (Average daily pain score, a composite of severity and number of days of pain), ‘Loose Stool’ (Number of days on which loose or watery stool occurred), ‘Urgency’ (Number of days on which urgency occured) and so-called ‘Global Rating’ (Patient rating of their condition taking into account all symptoms, 0=no problems). Adverse events (AE) such as constipation, dry mouth and visual abnormalities were also recorded.
# Clinical Study 2 was a multi-centre, double-blind, randomised, placebo-controlled parallel group study in which four dose strengths of darifenacin of 3.75 mg, 7.5 mg, 15 mg and 30 mg dosed od were compared with placebo. Treatment lasted 12 weeks following a 2-week run-in period.
# The controlled (slow) release dosage forms of darifenacin used in Clinical Studies 1 and 2 were 3.75 mg, 7.5 mg, 15.0 mg and 30.0 mg tablets having the following compositions: […]
# irritable bowel syndrome [2] = experiment: Clinical Study 3, immediate release darifenacin three times daily vs placebo in irritable bowel syndrome; conditions: for Constipation % of patients reporting AEs corrected for placebo / Dry Mouth % of patients reporting AEs corrected for placebo / Global Rating % Reduction from baseline corrected for placebo / Loose Stool % Reduction from baseline corrected for placebo / Pain Score % Reduction from baseline corrected for placebo / Total AE % of patients reporting AEs corrected for placebo / Urgency % Reduction from baseline corrected for placebo / Vision % of patients reporting AEs corrected for placebo / Constipation % of patients reporting AEs / Dry Mouth % of patients reporting AEs / Global Rating % Reduction from baseline / Loose Stool % Reduction from baseline / Pain Score % Reduction from baseline / Total AE % of patients reporting AEs / Urgency % Reduction from baseline / Vision % of patients reporting AEs: Clinical Study 3, 12 weeks; for Constipation % of patients reporting AEs / Dry Mouth % of patients reporting AEs / Global Rating % Reduction from baseline / Loose Stool % Reduction from baseline / Pain Score % Reduction from baseline / Total AE % of patients reporting AEs / Urgency % Reduction from baseline / Vision % of patients reporting AEs: uncorrected
# Description: as §1, §2
# Clinical Study 3 was a multi-centre, double-blind, randomised, placebo-controlled parallel group study in which three dose strengths of darifenacin 1.25, 2.5 and 5 mg dosed tid were compared with placebo. Treatment lasted 12 weeks following a 2-week run-in period.
# The immediate release dosage forms of darifenacin used in Clinical Study 3 were 1.25 mg, 2.5 mg and 5.0 mg capsules having the following compositions in a Size 3 capsule shell: […]
# [3] = Day 6 plasma concentrations of darifenacin, four-way crossover study in healthy male subjects; conditions: 7.5 mg tid immediate release capsule vs 20 mg SR od matrix tablet, healthy volunteers
# [4] = controlled release tablet 3.75 mg od
# [5] = controlled release tablet 7.5 mg od
# [6] = controlled release tablet 15 mg od
# [7] = controlled release tablet 30 mg od
# [8] = immediate release capsule 3 × 1.25 mg (tid)
# [9] = immediate release capsule 3 × 2.5 mg (tid)
# [10] = immediate release capsule 3 × 5.0 mg (tid)
smiles,measurement,setting,value
NC(=O)C(c1ccccc1)(c1ccccc1)[C@@H]1CCN(CCc2ccc3c(c2)CCO3)C1 [darifenacin],Constipation % of patients reporting AEs corrected for placebo,irritable bowel syndrome [1]; [4],4.5%
same,Dry Mouth % of patients reporting AEs corrected for placebo,irritable bowel syndrome [1]; [4],4.4%
same,Global Rating % Reduction from baseline corrected for placebo,irritable bowel syndrome [1]; [4],−7%
same,Loose Stool % Reduction from baseline corrected for placebo,irritable bowel syndrome [1]; [4],8%
same,Pain Score % Reduction from baseline corrected for placebo,irritable bowel syndrome [1]; [4],−9%
same,Total AE % of patients reporting AEs corrected for placebo,irritable bowel syndrome [1]; [4],6%
same,Urgency % Reduction from baseline corrected for placebo,irritable bowel syndrome [1]; [4],−1%
same,Vision % of patients reporting AEs corrected for placebo,irritable bowel syndrome [1]; [4],0.7%
same,Constipation % of patients reporting AEs,irritable bowel syndrome [1]; [4],6.4%
same,Dry Mouth % of patients reporting AEs,irritable bowel syndrome [1]; [4],9.6%
same,Global Rating % Reduction from baseline,irritable bowel syndrome [1]; [4],21%
same,Loose Stool % Reduction from baseline,irritable bowel syndrome [1]; [4],31%
same,Pain Score % Reduction from baseline,irritable bowel syndrome [1]; [4],28%
same,Total AE % of patients reporting AEs,irritable bowel syndrome [1]; [4],22%
same,Urgency % Reduction from baseline,irritable bowel syndrome [1]; [4],24%
same,Vision % of patients reporting AEs,irritable bowel syndrome [1]; [4],1.3%
same,Constipation % of patients reporting AEs corrected for placebo,irritable bowel syndrome [1]; [5],5.9%
same,Dry Mouth % of patients reporting AEs corrected for placebo,irritable bowel syndrome [1]; [5],4.4%
same,Global Rating % Reduction from baseline corrected for placebo,irritable bowel syndrome [1]; [5],−1%
same,Loose Stool % Reduction from baseline corrected for placebo,irritable bowel syndrome [1]; [5],16%
same,Pain Score % Reduction from baseline corrected for placebo,irritable bowel syndrome [1]; [5],0%
same,Total AE % of patients reporting AEs corrected for placebo,irritable bowel syndrome [1]; [5],6%
same,Urgency % Reduction from baseline corrected for placebo,irritable bowel syndrome [1]; [5],8%
same,Vision % of patients reporting AEs corrected for placebo,irritable bowel syndrome [1]; [5],0.6%
same,Constipation % of patients reporting AEs,irritable bowel syndrome [1]; [5],7.8%
same,Dry Mouth % of patients reporting AEs,irritable bowel syndrome [1]; [5],9.6%
same,Global Rating % Reduction from baseline,irritable bowel syndrome [1]; [5],27%
same,Loose Stool % Reduction from baseline,irritable bowel syndrome [1]; [5],39%
same,Pain Score % Reduction from baseline,irritable bowel syndrome [1]; [5],37%
same,Total AE % of patients reporting AEs,irritable bowel syndrome [1]; [5],22%
same,Urgency % Reduction from baseline,irritable bowel syndrome [1]; [5],33%
same,Vision % of patients reporting AEs,irritable bowel syndrome [1]; [5],1.2%
same,Constipation % of patients reporting AEs corrected for placebo,irritable bowel syndrome [1]; [6],11.6%
same,Dry Mouth % of patients reporting AEs corrected for placebo,irritable bowel syndrome [1]; [6],19.8%
same,Global Rating % Reduction from baseline corrected for placebo,irritable bowel syndrome [1]; [6],4%
same,Loose Stool % Reduction from baseline corrected for placebo,irritable bowel syndrome [1]; [6],30%
same,Pain Score % Reduction from baseline corrected for placebo,irritable bowel syndrome [1]; [6],2%
same,Total AE % of patients reporting AEs corrected for placebo,irritable bowel syndrome [1]; [6],15%
same,Urgency % Reduction from baseline corrected for placebo,irritable bowel syndrome [1]; [6],22%
same,Vision % of patients reporting AEs corrected for placebo,irritable bowel syndrome [1]; [6],2.6%
same,Constipation % of patients reporting AEs,irritable bowel syndrome [1]; [6],13.5%
same,Dry Mouth % of patients reporting AEs,irritable bowel syndrome [1]; [6],25%
same,Global Rating % Reduction from baseline,irritable bowel syndrome [1]; [6],32%
same,Loose Stool % Reduction from baseline,irritable bowel syndrome [1]; [6],53%
same,Pain Score % Reduction from baseline,irritable bowel syndrome [1]; [6],39%
same,Total AE % of patients reporting AEs,irritable bowel syndrome [1]; [6],41%
same,Urgency % Reduction from baseline,irritable bowel syndrome [1]; [6],47%
same,Vision % of patients reporting AEs,irritable bowel syndrome [1]; [6],3.2%
same,Constipation % of patients reporting AEs corrected for placebo,irritable bowel syndrome [1]; [7],15.1%
same,Dry Mouth % of patients reporting AEs corrected for placebo,irritable bowel syndrome [1]; [7],30.7%
same,Global Rating % Reduction from baseline corrected for placebo,irritable bowel syndrome [1]; [7],8%
same,Loose Stool % Reduction from baseline corrected for placebo,irritable bowel syndrome [1]; [7],27%
same,Pain Score % Reduction from baseline corrected for placebo,irritable bowel syndrome [1]; [7],3%
same,Total AE % of patients reporting AEs corrected for placebo,irritable bowel syndrome [1]; [7],34%
same,Urgency % Reduction from baseline corrected for placebo,irritable bowel syndrome [1]; [7],26%
same,Vision % of patients reporting AEs corrected for placebo,irritable bowel syndrome [1]; [7],4.6%
same,Constipation % of patients reporting AEs,irritable bowel syndrome [1]; [7],17%
same,Dry Mouth % of patients reporting AEs,irritable bowel syndrome [1]; [7],35.9%
same,Global Rating % Reduction from baseline,irritable bowel syndrome [1]; [7],36%
same,Loose Stool % Reduction from baseline,irritable bowel syndrome [1]; [7],50%
same,Pain Score % Reduction from baseline,irritable bowel syndrome [1]; [7],40%
same,Total AE % of patients reporting AEs,irritable bowel syndrome [1]; [7],50%
same,Urgency % Reduction from baseline,irritable bowel syndrome [1]; [7],41%
same,Vision % of patients reporting AEs,irritable bowel syndrome [1]; [7],5.2%
same,Constipation % of patients reporting AEs corrected for placebo,irritable bowel syndrome [2]; [8],3.4%
same,Dry Mouth % of patients reporting AEs corrected for placebo,irritable bowel syndrome [2]; [8],0.3%
same,Global Rating % Reduction from baseline corrected for placebo,irritable bowel syndrome [2]; [8],9%
same,Loose Stool % Reduction from baseline corrected for placebo,irritable bowel syndrome [2]; [8],8%
same,Pain Score % Reduction from baseline corrected for placebo,irritable bowel syndrome [2]; [8],10%
same,Total AE % of patients reporting AEs corrected for placebo,irritable bowel syndrome [2]; [8],−4%
same,Urgency % Reduction from baseline corrected for placebo,irritable bowel syndrome [2]; [8],11%
same,Vision % of patients reporting AEs corrected for placebo,irritable bowel syndrome [2]; [8],−2.2%
same,Constipation % of patients reporting AEs,irritable bowel syndrome [2]; [8],6.3%
same,Dry Mouth % of patients reporting AEs,irritable bowel syndrome [2]; [8],16%
same,Global Rating % Reduction from baseline,irritable bowel syndrome [2]; [8],27%
same,Loose Stool % Reduction from baseline,irritable bowel syndrome [2]; [8],16%
same,Pain Score % Reduction from baseline,irritable bowel syndrome [2]; [8],33%
same,Total AE % of patients reporting AEs,irritable bowel syndrome [2]; [8],36%
same,Urgency % Reduction from baseline,irritable bowel syndrome [2]; [8],36%
same,Vision % of patients reporting AEs,irritable bowel syndrome [2]; [8],1.4%
same,Constipation % of patients reporting AEs corrected for placebo,irritable bowel syndrome [2]; [9],5.6%
same,Dry Mouth % of patients reporting AEs corrected for placebo,irritable bowel syndrome [2]; [9],8.8%
same,Global Rating % Reduction from baseline corrected for placebo,irritable bowel syndrome [2]; [9],11%
same,Loose Stool % Reduction from baseline corrected for placebo,irritable bowel syndrome [2]; [9],22%
same,Pain Score % Reduction from baseline corrected for placebo,irritable bowel syndrome [2]; [9],17%
same,Total AE % of patients reporting AEs corrected for placebo,irritable bowel syndrome [2]; [9],−3%
same,Urgency % Reduction from baseline corrected for placebo,irritable bowel syndrome [2]; [9],17%
same,Vision % of patients reporting AEs corrected for placebo,irritable bowel syndrome [2]; [9],−0.1%
same,Constipation % of patients reporting AEs,irritable bowel syndrome [2]; [9],5.6%
same,Dry Mouth % of patients reporting AEs,irritable bowel syndrome [2]; [9],24.5%
same,Global Rating % Reduction from baseline,irritable bowel syndrome [2]; [9],29%
same,Loose Stool % Reduction from baseline,irritable bowel syndrome [2]; [9],30%
same,Pain Score % Reduction from baseline,irritable bowel syndrome [2]; [9],40%
same,Total AE % of patients reporting AEs,irritable bowel syndrome [2]; [9],37%
same,Urgency % Reduction from baseline,irritable bowel syndrome [2]; [9],42%
same,Vision % of patients reporting AEs,irritable bowel syndrome [2]; [9],3.5%
same,Constipation % of patients reporting AEs corrected for placebo,irritable bowel syndrome [2]; [10],8.4%
same,Dry Mouth % of patients reporting AEs corrected for placebo,irritable bowel syndrome [2]; [10],33.9%
same,Global Rating % Reduction from baseline corrected for placebo,irritable bowel syndrome [2]; [10],14%
same,Loose Stool % Reduction from baseline corrected for placebo,irritable bowel syndrome [2]; [10],44%
same,Pain Score % Reduction from baseline corrected for placebo,irritable bowel syndrome [2]; [10],13%
same,Total AE % of patients reporting AEs corrected for placebo,irritable bowel syndrome [2]; [10],20%
same,Urgency % Reduction from baseline corrected for placebo,irritable bowel syndrome [2]; [10],32%
same,Vision % of patients reporting AEs corrected for placebo,irritable bowel syndrome [2]; [10],4.2%
same,Constipation % of patients reporting AEs,irritable bowel syndrome [2]; [10],11.3%
same,Dry Mouth % of patients reporting AEs,irritable bowel syndrome [2]; [10],49.6%
same,Global Rating % Reduction from baseline,irritable bowel syndrome [2]; [10],32%
same,Loose Stool % Reduction from baseline,irritable bowel syndrome [2]; [10],52%
same,Pain Score % Reduction from baseline,irritable bowel syndrome [2]; [10],36%
same,Total AE % of patients reporting AEs,irritable bowel syndrome [2]; [10],60%
same,Urgency % Reduction from baseline,irritable bowel syndrome [2]; [10],57%
same,Vision % of patients reporting AEs,irritable bowel syndrome [2]; [10],7.8%
same,"all four efficacy measures (Pain Score, Loose Stool, Urgency and Global Rating)","irritable bowel syndrome [2]; immediate release tid study, all three doses",marked improvements
same,darifenacin plasma concentration (FIG. 1),[3],periodic ‘peaking’ of the darifenacin plasma concentration above that of the controlled release curve
